Test results: patent US12643881B2, “Bicyclic amine CDK12 inhibitors” (Incyte Corporation, priority 2021, dated 2026)

Target: T1, CDK12 complexed with Cyclin K (Homo sapiens, UniProt Q9NYV4)
T1 construct: GST (N)
Test: CDK Enzymatic Assays (HTRF, LANCE Ultra kinase assay), Example A1
Assay type: biochemical
Conditions: enzyme pre-incubated with compounds for 60 minutes prior to addition of ATP (1 mM final) and Ulight-peptide; reaction 60-90 minutes at room temperature
From the text: Example A1. CDK Enzymatic Assays
The following activity of the CDK enzymes in complex with their respective cyclins we assayed: CDK1 complexed with Cyclin B1; CDK2 complexed with Cyclin E1; CDK4 complexed with Cyclin D1; CDK6 complexed with Cyclin D1; CDK6 complexed with Cyclin D3; CDK9 complexed with Cyclin T1; CDK7 complexed with Cyclin H/MAT1; CDK2 complexed with Cyclin A2; CDK5 complexed with p35; CDK12 complexed with Cyclin K; CDK13 complexed with Cyclin K. These in vitro enzyme activity are assayed using homogeneous time-resolved energy transfer (HTRF), which measures phosphorylation of a peptide substrate. The LANCER Ultra kinase assay (PerkinElmer) uses a ULight™-labeled EIF4E-binding protein 1 (THR37/46) peptide (DYSTTPGGTLFSTTPGTRI (SEQ ID NO: 1)) substrate and a Europium-labeled anti-phospho-4E-BP1 antibody (CDK2, CDK1, CDK4, CDK6, CDK9, CDK12, CDK13) or ULight™-labeled Myelin Basic Protein peptide (VTPRTPPP (SEQ ID NO: 2)) substrate and a Europium-labeled anti-phospho-MBP antibody (CDK7). Each CDK enzyme activity assays utilized human CDK co-expressed as N-terminal GST-tagged protein with its full length cyclin partner using a baculovirus expression system.
Enzyme was pre-incubated with compounds for 30 minutes (CDK1,2,4,6,9) or 60 minutes (CDK7, CDK12, CDK13) prior to addition of ATP and Ulight-peptide (1 mM and 50 nM final, respectively), in assay buffer containing 50 mM HEPES pH 7.5, 1 mM EGTA, 10 mM MgCl2, 2 mM DTT, 0.05 mg/mL BSA, and 0.01% Tween 20. The reaction was then incubated for 60-90 minutes at room temperature. The reactions were stopped by the addition of EDTA and Europium labeled antibody, for a final concentration of 15 mM and 1.0-1.5 nM, respectively. HTRF signals were read after 15-120 minutes. A ratio of fluorescence transferred to the labeled substrate (665 nm) relative to fluorescence of the Europium donor (620 nm) represents the extent of phosphorylation. Ratios for treated wells were normalized to DMSO only (100% activity) and no enzyme (0% activity) controls. Normalized data was analyzed using a three or four parameter dose response curve to determine IC50 for each compound and are shown in Table A. Control reference inhibitors were included on each plate.

T1 sequence (Q9NYV4 whole entry): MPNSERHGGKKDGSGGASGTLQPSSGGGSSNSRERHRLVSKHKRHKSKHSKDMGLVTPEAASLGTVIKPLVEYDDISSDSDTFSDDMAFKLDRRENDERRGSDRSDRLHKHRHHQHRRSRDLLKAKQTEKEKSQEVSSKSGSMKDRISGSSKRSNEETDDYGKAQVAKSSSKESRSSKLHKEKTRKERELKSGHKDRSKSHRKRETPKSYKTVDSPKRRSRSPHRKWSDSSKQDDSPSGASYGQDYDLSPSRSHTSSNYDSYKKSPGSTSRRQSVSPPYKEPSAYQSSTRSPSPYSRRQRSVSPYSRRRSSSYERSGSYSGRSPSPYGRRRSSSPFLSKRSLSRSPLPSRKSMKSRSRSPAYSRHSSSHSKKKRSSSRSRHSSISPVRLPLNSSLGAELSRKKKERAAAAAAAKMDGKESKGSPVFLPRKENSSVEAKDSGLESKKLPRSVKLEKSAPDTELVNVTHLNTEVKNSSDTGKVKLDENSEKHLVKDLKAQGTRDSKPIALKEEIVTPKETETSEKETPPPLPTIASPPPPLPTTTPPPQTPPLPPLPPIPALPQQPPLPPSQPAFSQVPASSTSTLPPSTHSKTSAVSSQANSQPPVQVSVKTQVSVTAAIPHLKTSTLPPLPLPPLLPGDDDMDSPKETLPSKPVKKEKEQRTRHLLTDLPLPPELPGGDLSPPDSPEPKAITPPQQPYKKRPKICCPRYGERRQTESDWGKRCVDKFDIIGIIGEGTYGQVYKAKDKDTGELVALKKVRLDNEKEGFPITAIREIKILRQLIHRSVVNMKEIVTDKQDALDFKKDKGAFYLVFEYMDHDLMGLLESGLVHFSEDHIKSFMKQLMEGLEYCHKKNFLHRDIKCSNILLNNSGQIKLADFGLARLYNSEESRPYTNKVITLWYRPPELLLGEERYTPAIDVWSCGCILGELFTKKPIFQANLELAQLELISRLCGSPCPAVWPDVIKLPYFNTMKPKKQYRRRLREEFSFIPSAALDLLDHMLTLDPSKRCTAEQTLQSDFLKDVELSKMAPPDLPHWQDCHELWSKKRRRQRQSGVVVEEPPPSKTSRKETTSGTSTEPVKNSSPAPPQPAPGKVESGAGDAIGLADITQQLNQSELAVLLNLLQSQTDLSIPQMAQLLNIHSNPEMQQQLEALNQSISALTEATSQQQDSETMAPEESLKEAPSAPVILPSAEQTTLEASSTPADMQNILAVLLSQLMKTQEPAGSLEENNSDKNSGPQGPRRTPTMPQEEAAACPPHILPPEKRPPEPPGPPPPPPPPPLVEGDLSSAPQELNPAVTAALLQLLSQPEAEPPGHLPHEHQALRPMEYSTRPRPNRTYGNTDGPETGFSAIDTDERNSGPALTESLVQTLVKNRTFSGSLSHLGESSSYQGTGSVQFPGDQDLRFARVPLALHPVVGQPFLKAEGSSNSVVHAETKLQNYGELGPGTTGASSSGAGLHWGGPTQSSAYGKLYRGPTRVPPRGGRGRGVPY
T1 sequence (O75909 whole entry partner): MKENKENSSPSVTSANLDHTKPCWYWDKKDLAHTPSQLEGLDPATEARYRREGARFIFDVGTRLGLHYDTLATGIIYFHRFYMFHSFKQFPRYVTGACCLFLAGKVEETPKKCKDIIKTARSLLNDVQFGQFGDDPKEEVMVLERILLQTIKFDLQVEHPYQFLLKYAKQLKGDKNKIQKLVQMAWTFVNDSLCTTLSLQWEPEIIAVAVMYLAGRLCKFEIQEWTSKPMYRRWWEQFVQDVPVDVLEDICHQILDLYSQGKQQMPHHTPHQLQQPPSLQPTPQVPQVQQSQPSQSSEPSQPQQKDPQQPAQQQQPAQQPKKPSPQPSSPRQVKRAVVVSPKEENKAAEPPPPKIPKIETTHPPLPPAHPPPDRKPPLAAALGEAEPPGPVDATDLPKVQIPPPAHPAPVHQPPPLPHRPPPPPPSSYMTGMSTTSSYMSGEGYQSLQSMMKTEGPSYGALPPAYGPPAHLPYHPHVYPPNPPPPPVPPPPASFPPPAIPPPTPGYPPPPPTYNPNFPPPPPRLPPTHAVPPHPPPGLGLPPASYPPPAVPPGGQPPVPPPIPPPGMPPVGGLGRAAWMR

Structure (SMILES)	IC50 [nM]
CC#CC(=O)Nc1nn(C)c2cc(N3CCC[C@@H](Nc4ncc(C#N)c(OC)n4)C3)ncc12 [Example 30, (R)—N-(6-(3-((5-Cyano-4-methoxypyrimidin-2-yl)amino)piperidin-1-yl)-1-methyl-1H-pyrazolo[4,3-c]pyridin-3-yl)but-2-ynamide]	< 50
CCC(Br)C(=O)Nc1nn(C)c2cc(N3CCC[C@@H](Nc4ncc(C#N)c(OC)n4)C3)ncc12 (stereo partly drawn) [Example 31, 2-Bromo-N-(6-((R)-3-((5-cyano-4-methoxypyrimidin-2-yl)amino)piperidin-1-yl)-1-methyl-1H-pyrazolo[4,3-c]pyridin-3-yl)butanamide]	< 50
COc1nc(N[C@@H]2CCCN(c3cc4c(cn3)c(NC(=O)C(C)Br)nn4C)C2)ncc1C#N (stereo partly drawn) [Example 32, 2-Bromo-N-(6-((R)-3-((5-cyano-4-methoxypyrimidin-2-yl)amino)piperidin-1-yl)-1-methyl-1H-pyrazolo[4,3-c]pyridin-3-yl)propanamide]	< 50
COc1nc(N[C@@H]2CCCN(c3cc4c(cn3)c(NC(=O)CCl)nn4C)C2)ncc1C#N [Example 33, (R)-2-Chloro-N-(6-(3-((5-cyano-4-methoxypyrimidin-2-yl)amino)piperidin-1-yl)-1-methyl-1H-pyrazolo[4,3-c]pyridin-3-yl)acetamide]	< 50
C=CC(=O)Nc1cnc2c(N3CCC[C@@H](Nc4ncc(C#N)c(OC)n4)C3)nccn12 [Example 34, (R)—N-(8-(3-((5-Cyano-4-methoxypyrimidin-2-yl)amino)piperidin-1-yl)imidazo[1,2-a]pyrazin-3-yl)acrylamide]	< 50
C=CC(=O)Nc1cccc2c(N3CCC[C@@H](Nc4ncc(C#N)c(OC)n4)C3)nn(C)c12 [Example 35, (R)—N-(3-(3-((5-Cyano-4-methoxypyrimidin-2-yl)amino)piperidin-1-yl)-1-methyl-1H-indazol-7-yl)acrylamide]	< 50
C=CC(=O)Nc1ccc2oc(N3CCC[C@@H](Nc4ncc(C#N)c(OC)n4)C3)nc2c1 [Example 36, (R)—N-(2-(3-((5-Cyano-4-methoxypyrimidin-2-yl)amino)piperidin-1-yl)benzo[d]oxazol-5-yl)acrylamide]	< 50
C=CC(=O)Nc1ccc2c(c1)nc(N1CCC[C@@H](Nc3ncc(C#N)c(OC)n3)C1)n2C [Example 37, (R)—N-(2-(3-((5-Cyano-4-methoxypyrimidin-2-yl)amino)piperidin-1-yl)-1-methyl-1H-benzo[d]imidazol-5-yl)acrylamide]	< 50
C=CC(=O)Nc1cncc2sc(N3CC[C@@H](Nc4ncc(C#N)c(OC)n4)C3)nc12 [Example 38, (R)—N-(2-(3-((5-Cyano-4-methoxypyrimidin-2-yl)amino)pyrrolidin-1-yl)thiazolo[5,4-c]pyridin-7-yl)acrylamide]	< 50
C=CC(=O)Nc1ccc2c(c1)cc(N1CCC[C@@H](Nc3ncc(C#N)c(OC)n3)C1)n2C [Example 39, (R)—N-(2-(3-((5-Cyano-4-methoxypyrimidin-2-yl)amino)piperidin-1-yl)-1-methyl-1H-indol-5-yl)acrylamide]	> 500
C=CC(=O)Nc1ccc2sc(N3CCC[C@@H](Nc4ncc(C#N)c(OC)n4)C3)nc2c1 [Example 40, (R)—N-(2-(3-((5-Cyano-4-methoxypyrimidin-2-yl)amino)piperidin-1-yl)benzo[d]thiazol-5-yl)acrylamide]	< 50
C=CC(=O)Nc1ccc2sc(N3CC[C@@H](Nc4ncc(C#N)c(OC)n4)C3)nc2c1 [Example 41, (R)—N-(2-(3-((5-Cyano-4-methoxypyrimidin-2-yl)amino)pyrrolidin-1-yl)benzo[d]thiazol-5-yl)acrylamide]	< 50
C=CC(=O)Nc1ccc2c(N3CCC[C@@H](Nc4ncc(C#N)c(OC)n4)C3)csc2c1 [Example 42, (R)—N-(3-(3-((5-Cyano-4-methoxypyrimidin-2-yl)amino)piperidin-1-yl)benzo[b]thiophen-6-yl)acrylamide]	50 to 500
C=CC(=O)Nc1ccc2c(N3CCC[C@@H](Nc4ncc(C#N)c(OC)n4)C3)nn(C)c2c1 [Example 43, (R)—N-(3-(3-((5-Cyano-4-methoxypyrimidin-2-yl)amino)piperidin-1-yl)-1-methyl-1H-indazol-6-yl)acrylamide]	< 50
C=CC(=O)Nc1ccc2nc(N3CCC[C@@H](Nc4ncc(C#N)c(OC)n4)C3)nn2c1 [Example 44, (R)—N-(2-(3-((5-Cyano-4-methoxypyrimidin-2-yl)amino)piperidin-1-yl)-[1,2,4]triazolo[1,5-a]pyridin-6-yl)acrylamide]	< 50
C=CC(=O)Nc1ccc2nc(N3CC[C@@H](Nc4ncc(C#N)c(OC)n4)C3)nn2c1 [Example 45, (R)—N-(2-(3-((5-Cyano-4-methoxypyrimidin-2-yl)amino)pyrrolidin-1-yl)-[1,2,4]triazolo[1,5-a]pyridin-6-yl)acrylamide]	< 50
C=CC(=O)Nc1ccc2nc(N3CCC[C@@H](Nc4ncc(C#N)c(OC)n4)C3)sc2c1 [Example 46, (R)—N-(2-(3-((5-Cyano-4-methoxypyrimidin-2-yl)amino)piperidin-1-yl)benzo[d]thiazol-6-yl)acrylamide]	< 50
C=CC(=O)Nc1ccc2c(c1)nc([C@H]1CCC[C@@H](Nc3ncc(C#N)c(OC)n3)C1)n2CCO [Example 47, N-(2-((1S,3R)-3-((5-Cyano-4-methoxypyrimidin-2-yl)amino)cyclohexyl)-1-(2-hydroxyethyl)-1H-benzo[d]imidazol-5-yl)acrylamide]	< 50
CCOC(=O)/C=C/C(=O)Nc1ccc2c(c1)nc([C@H]1CCC[C@@H](Nc3ncc(C#N)c(OC)n3)C1)n2C [Example 48, Ethyl (E)-4-((2-((1S,3R)-3-((5-Cyano-4-methoxypyrimidin-2-yl)amino)cyclohexyl)-1-methyl-1H-benzo[d]imidazol-5-yl)amino)-4-oxobut-2-enoate]	< 50
CCC(Br)C(=O)Nc1ccc2c(c1)nc([C@H]1CCC[C@@H](Nc3ncc(C#N)c(OC)n3)C1)n2C (stereo partly drawn) [Example 49, 2-Bromo-N-(2-((1S,3R)-3-((5-cyano-4-methoxypyrimidin-2-yl)amino)cyclohexyl)-1-methyl-1H-benzo[d]imidazol-5-yl)butanamide]	< 50
COc1nc(N[C@@H]2CCC[C@H](c3nc4cc(NC(=O)CCl)ccc4n3C)C2)ncc1C#N [Example 50, 2-Chloro-N-(2-((1S,3R)-3-((5-cyano-4-methoxypyrimidin-2-yl)amino)cyclohexyl)-1-methyl-1H-benzo[d]imidazol-5-yl)acetamide]	< 50
COc1nc(N[C@@H]2CCC[C@H](c3nc4cc(NC(=O)C5OC5C(=O)O)ccc4n3C)C2)ncc1C#N (stereo partly drawn) [Example 51, 3-((2-((1S,3R)-3-((5-Cyano-4-methoxypyrimidin-2-yl)amino)cyclohexyl)-1-methyl-1H-benzo[d]imidazol-5-yl)carbamoyl)oxirane-2-carboxylic acid]	50 to 500
COc1nc(N[C@@H]2CCC[C@H](c3nc4cc(NC(=O)C(C)Br)ccc4n3C)C2)ncc1C#N (stereo partly drawn) [Example 52, 2-Bromo-N-(2-((1S,3R)-3-((5-cyano-4-methoxypyrimidin-2-yl)amino)cyclohexyl)-1-methyl-1H-benzo[d]imidazol-5-yl)propanamide]	< 50
C=C(F)C(=O)Nc1ccc2c(c1)nc([C@H]1CCC[C@@H](Nc3ncc(C#N)c(OC)n3)C1)n2C [Example 53, N-(2-((1S,3R)-3-((5-Cyano-4-methoxypyrimidin-2-yl)amino)cyclohexyl)-1-methyl-1H-benzo[d]imidazol-5-yl)-2-fluoroacrylamide]	50 to 500
CC#CC(=O)Nc1ccc2c(c1)nc([C@H]1CCC[C@@H](Nc3ncc(C#N)c(OC)n3)C1)n2C [Example 54, N-(2-((1S,3R)-3-((5-Cyano-4-methoxypyrimidin-2-yl)amino)cyclohexyl)-1-methyl-1H-benzo[d]imidazol-5-yl)but-2-ynamide]	50 to 500
COc1nc(N[C@@H]2CCC[C@H](N3Cc4ccc(NC(=O)C(C)Br)cc4C3=O)C2)ncc1C#N (stereo partly drawn) [Example 55, 2-Bromo-N-(2-((1S,3R)-3-((5-cyano-4-methoxypyrimidin-2-yl)amino)cyclohexyl)-3-oxoisoindolin-5-yl)propanamide]	< 50
C=C(F)C(=O)Nc1ccc2c(c1)C(=O)N([C@H]1CCC[C@@H](Nc3ncc(C#N)c(OC)n3)C1)C2 [Example 56, N-(2-((1S,3R)-3-((5-Cyano-4-methoxypyrimidin-2-yl)amino)cyclohexyl)-3-oxoisoindolin-5-yl)-2-fluoroacrylamide]	50 to 500
